Patent US20050049282A1, “Process” (priority 2001, published 2005)

Key:
[1] = Stability of omeprazole in alcoholic solution under chromatographic conditions; type: physicochemical; conditions: methanol with addition of 0.1% diethylamine
Description: It has previously been reported that alcoholic solution of omeprazole is not stable in room temperature and in daylight. There is thus a risk that one or several decomposition products might co-elute with one of the enantiomers.

[2] = room temperature and daylight; cited from earlier work

## COc1ccc2[nH]c([S+]([O-])Cc3ncc(C)c(OC)c3C)nc2c1 (racemic) [omeprazole, 5-methoxy-2-[[(4-methoxy-3,5-dimethyl-2-pyridinyl)methyl]sulfinyl]-1H-benzimidazole]
[1]
  stability of solution in methanol: stabilizes a solution of omeprazole in methanol to a sufficient degree
[2]
  stability of alcoholic solution: not stable
